Reference: paper PMC6253880, “2-Amido-3-(1H-Indol-3-yl)-N-Substitued-Propanamides as a New Class of Falcipain-2 Inhibitors. 1. Design, Synthesis, Biological Evaluation and Binding Model Studies” (Molecules, 2009)
Where two headings read alike, the source gives them in different places. One block for each compound: values may come before it.

How the values were obtained:
falcipain-2 (FP-2) [1] = target: T1, falcipain-2 (FP-2) (Plasmodium falciparum, UniProt Q8I6U4); assay: Enzyme inhibition assay, recombinant FP-2, substrate Z-Leu-Arg-AMC, fluorescence; assay type: biochemical; conditions: for Inhibition rate at 10 μM (%): 10 μM compound; for Inhibition rate at 10 μM (%) / inhibition at 10 µM: FP-2 30 nM, pH 5.5, 30 min preincubation
T1 construct: made in house
T1 sequence (Q8I6U4 244-484): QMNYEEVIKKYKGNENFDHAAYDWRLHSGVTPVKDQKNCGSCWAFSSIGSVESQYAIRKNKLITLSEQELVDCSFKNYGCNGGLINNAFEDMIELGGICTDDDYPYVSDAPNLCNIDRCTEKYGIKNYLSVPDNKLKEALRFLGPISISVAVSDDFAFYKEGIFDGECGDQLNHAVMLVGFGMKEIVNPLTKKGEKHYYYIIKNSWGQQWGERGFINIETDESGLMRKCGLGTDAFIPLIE
Experimental: (§1) For the primary assay, the percent inhibitions of the compounds were measured at 10 μM. […] It is clear that the inhibitory activity of compound 2k was ~3 times higher than that of the lead compound 1, proving the validity of our chemical modifications. The anti-malarial potential of compound 1 in mice was investigated with Plasmodium berghei ANKA using a standard 4-day suppression test.
The purification and refolding of recombinant protein FP-2 was performed as described by Shenai et al. IC50 values against recombinant FP-2 were determined as described previously. FP-2 (30nM) was incubated for 30 min at room temperature in 100 mM sodium acetate, pH 5.5, 10 mM DTT, with different concentrations of tested inhibitors. Inhibitor solutions were prepared from stock in DMSO (maximum concentration of DMSO in the assay was 1%). After 30 min incubation, the substrate Z-Leu-Arg-AMC (benzoxycarbonyl-Leu-Arg-7-amino-4-methylcoumarin, Bachem AG) in the same buffer was added to a final concentration of 25 μM. The increase in fluorescence (excitation at 355 nm and emission at 460 nm) was monitored for 30 min at room temperature with an automated microtiter plate spectrofluorimeter (Molecular Devices, Flex Station). Half-maximal inhibitory concentration (IC50) was determined from plots of percent activity over compound concentration using GraphPad Prism software.

falcipain-2 (FP-2) [2] = target: T1, falcipain-2 (FP-2); assay: Surface plasmon resonance-based FP-2/ligand binding assay (Biacore 3000, CM5 chip); conditions: SPR, immobilized FP-2, steady state affinity fitting, 25°C, HBS-EP pH 7.4
Excerpt: Targeting the crystal structure of FP-2 (PDB entry 2GHU), a total of 80,000 compounds were subsequently docked and ranked according to the Glide and GAsDock software. Finally, 81 compounds were purchased and submitted to biological evaluations against FP-2. Because enzymatic assays are time-consuming, surface plasmon resonance (SPR) measurements were used for the primary screening to determine the binding affinity of these 81 candidate molecules to FP-2. […] Among the 81 compounds, the biosensor RU of compound 1 was concentration-dependent. […] Thus, compound 1 could be designated as a binder (or hit) of FP-2.
The purification and refolding of recombinant protein FP-2 was performed as described by Shenai et al. The binding affinity of compound 1 to FP-2 in vitro was determined based on surface plasmon resonance (SPR) technology. The measurement was performed using the dual flow cell Biacore 3000 instrument (Biacore AB, Uppsala, Sweden). Immobilization of FP-2 to the hydrophilic carboxymethylated dextran matrix of the sensor chip CM5 (Biacore) was carried out by the standard primary amine coupling reaction wizard. […] The equilibrium constants (KD values) evaluating the protein–ligand binding affinities were determined by the steady state affinity fitting analysis of the Biacore data.

Plasmodium berghei ANKA = assay: Standard 4-day suppression test in mice; assay type: in vivo; conditions: 9 mg/kg body weight intragastric daily for 4 days following infection, unpublished data
Experimental: as §1

[3] = pH 5.5, read-out: Inhibition rate at 10 μM (%), 10 μM compound
[4] = pH 5.5, 10 μM compound, read-out: Inhibition rate at 10 μM (%)

Compound: COC(=O)c1ccc(CNC(=O)[C@@H](Cc2c[nH]c3ccccc23)NC(=O)Oc2ccccc2)cc1 [Compound 2l, (R)-2-Phenoxycarboxamido-3-(1H-indol-3-yl)-N-(4-methoxycarbonyl-phenylmethyl)-propanamide]
- IC50 (falcipain-2 (FP-2) [1]): 13.3 µM
- Inhibition rate at 10 μM (%) (falcipain-2 (FP-2) [1]): 32.9%
- inhibition at 10 µM (falcipain-2 (FP-2) [1]; [3]): > 20%

- melting point: 38 to 40 °C
- inhibition at 10 µM (falcipain-2 (FP-2) [1]; [4]): 13%
Compound: O=C(NCc1ccccc1)[C@@H](Cc1c[nH]c2ccccc12)NCc1ccccc1 [Compound 2c, (R)-2-Benzylamino-3-(1H-indol-3-yl)-N-benzyl-propanamide]

Compound: O=C(N[C@H](Cc1c[nH]c2ccccc12)C(=O)Nc1ccccc1)Oc1ccccc1 [Compound 2d, (R)-2-Phenoxycarboxamido-3-(1H-indol-3-yl)-N-phenylpropanamide]
- melting point: 195 to 197 °C
- inhibition at 10 µM (falcipain-2 (FP-2) [1]; [3]): 11.8%

- Inhibition rate at 10 μM (%) (falcipain-2 (FP-2) [1]): 25.7%
- inhibition at 10 µM (falcipain-2 (FP-2) [1]; [4]): > 20%
- IC50 (falcipain-2 (FP-2) [1]; recombinant FP-2 30 nM, Z-Leu-Arg-AMC 25 μM, pH 5.5, read-out: IC50): 39.4 µM
Compound: O=C(Cc1ccccc1)N[C@H](Cc1c[nH]c2ccccc12)C(=O)NCc1ccccc1 [Compound 2b, (R)-2-(2-Phenylacetamido)-3-(1H-indol-3-yl)-N-benzylpropanamide]

Compound: CCOc1ccc(NC(=O)[C@@H](Cc2c[nH]c3ccccc23)NC(=O)Oc2ccccc2)cc1 [Compound 2f, (R)-2-Phenoxycarboxamido-3-(1H-indol-3-yl)-N-(4-ethoxyphenyl)-propanamide]
- melting point: 180 to 184 °C
- inhibition at 10 µM (falcipain-2 (FP-2) [1]; [3]): 13.6%

Compound: O=C(N[C@@H](Cc1c[nH]c2ccccc12)C(=O)NCc1ccccc1)Oc1ccccc1 [Compound 2a, (S)-2-Phenoxycarboxamido-3-(1H-indol-3-yl)-N-benzylpropanamide]
- inhibition at 10 µM (falcipain-2 (FP-2) [1]; [3]): 14.3%

Compound: O=C(N[C@H](Cc1c[nH]c2ccccc12)C(=O)Nc1ccc2c(c1)OCO2)Oc1ccccc1 [Compound 2g, (R)-2-Phenoxycarboxamido-3-(1H-indol-3-yl)-N-(benzo[1,3]dioxol-5-yl)-propanamide]
- melting point: 186 to 188 °C
- inhibition at 10 µM (falcipain-2 (FP-2) [1]; [3]): 3.1%

Compound: O=C(N[C@H](Cc1c[nH]c2ccccc12)C(=O)NCc1cccs1)Oc1ccccc1 [Compound 2i, (R)-2-Phenoxycarboxamido-3-(1H-indol-3-yl)-N-[(thiophen-2-yl)methyl]-propanamide]
- melting point: 184 to 186 °C
- inhibition at 10 µM (falcipain-2 (FP-2) [1]; [3]): 2.2%

Compound: O=C(N[C@H](Cc1c[nH]c2ccccc12)C(=O)Nc1ccc(F)cc1)Oc1ccccc1 [Compound 2e, (R)-2-Phenoxycarboxamido-3-(1H-indol-3-yl)-N-(4-fluorophenyl)-propanamide]
- melting point: 185 to 189 °C
- inhibition at 10 µM (falcipain-2 (FP-2) [1]; [3]): 3.1%

Compound: C#CCNC(=O)[C@@H](Cc1c[nH]c2ccccc12)NC(=O)Oc1ccccc1 [Compound 2j, (R)-2-Phenoxycarboxamido-3-(1H-indol-3-yl)-N-(prop-2-yn-1-yl)-propanamide]
- melting point: 173 to 177 °C
- inhibition at 10 µM (falcipain-2 (FP-2) [1]; [3]): 6.6%

Compound: O=C(N[C@H](Cc1c[nH]c2ccccc12)C(=O)NCc1ccccc1)Oc1ccccc1 [Compound 1, (R)-2-Phenoxycarboxamido-3-(1H-indol-3-yl)-N-benzylpropanamide]
- IC50 (falcipain-2 (FP-2) [1]): 29.7 µM
- Inhibition rate at 10 μM (%) (falcipain-2 (FP-2) [1]): 29.4%
- inhibition at 10 µM (falcipain-2 (FP-2) [1]; [3]): > 20%
- Kd (falcipain-2 (FP-2) [2]): 5.88 µM
- reduction in parasitemia relative to normal control (Plasmodium berghei ANKA): < 50%

Compound: O=C(N[C@H](Cc1c[nH]c2ccccc12)C(=O)NCc1ccc([N+](=O)[O-])cc1)Oc1ccccc1 [Compound 2k, (R)-2-Phenoxycarboxamido-3-(1H-indol-3-yl)-N-[(4-nitrophenyl)methyl]-propanamide]
- IC50 (falcipain-2 (FP-2) [1]): 10 µM
- FP-2 inhibitory activity relative to lead compound 1 (fold better) (falcipain-2 (FP-2) [1]; ratio of inhibitory activity versus compound 1): ~ 3
